What was measured:
CCKB receptor = biological target: T1, CCKB receptor (Mus musculus, UniProt P56481); assay: radioligand binding assay at the CCKB receptor in mouse cortical membranes; conditions: [125I]-CCK8S 200pM, 150 min at 21 ± 3°C; for Ki: read-out: CCKB pKi (converted)
T1 construct: The whole brains from male mice (CD1 22-25g; Charles River) were removed; from tissue; host or cells: cerebral cortex membranes of male CD1 mice
T1 sequence (P56481 1-453): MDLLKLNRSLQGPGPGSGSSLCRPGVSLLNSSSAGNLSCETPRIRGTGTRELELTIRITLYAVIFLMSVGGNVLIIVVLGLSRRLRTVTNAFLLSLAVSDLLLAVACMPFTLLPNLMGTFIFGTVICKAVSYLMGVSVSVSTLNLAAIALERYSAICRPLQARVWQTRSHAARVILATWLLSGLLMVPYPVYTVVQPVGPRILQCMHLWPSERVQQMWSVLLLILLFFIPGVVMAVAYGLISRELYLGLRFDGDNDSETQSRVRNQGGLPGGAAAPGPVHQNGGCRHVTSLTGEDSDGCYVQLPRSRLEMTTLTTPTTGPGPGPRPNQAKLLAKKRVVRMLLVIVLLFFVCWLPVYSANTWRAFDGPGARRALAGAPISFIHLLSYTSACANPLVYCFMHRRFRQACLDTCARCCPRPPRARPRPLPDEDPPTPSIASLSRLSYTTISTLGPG
Experimental: The compounds of the examples were tested for binding at the CCKB receptor in mouse cortical membranes by means of a radioligand binding assay. The procedure was as follows:
The whole brains from male mice (CD1 22-25g; Charles River) were removed and placed in ice-cold buffer (pH7.2 @ 21 ± 3°C) of the following composition (mM); 10 HEPES, 130 NaCl, 4.7 KCl, 5 MgCl2, 1 EDTA and containing 0.25g.l^-1 bacitracin. The cortex was dissected, weighed and homogenised in 40ml ice-cold buffer using a Teflon-in-glass homogeniser. The homogenate was centrifuged at 39,800g for 20 min at 4°C, the supernatant discarded and the pellet resuspended by homogenisation in fresh buffer. The homogenate was recentrifuged (39,800g; 20 min @ 4°C) and the final pellet was resuspended in HEPES buffer to give a tissue concentration of 2mg.ml^-1(original wet weight).
The assay was terminated by rapid filtration through pre-soaked Whatman GF/B filters using a Brandell Cell harvester. The filters were washed (3 x 3ml) with ice-cold 50mM Tris-HCl (pH7.4 @ 4°C) and bound radioactivity determined by counting (1 min.) in a gamma-counter.

gastrin = biological target: T2, gastrin (Rattus norvegicus, UniProt P30553); assay: gastrin antagonist activity in an immature rat stomach assay; conditions: isolated immature rat stomach, cumulative pentagastrin dose-response curves, acid secretion; for Kb: read-out: Gastrin pKB (converted)
T2 construct: The stomach was excised and flushed with ca. 1 ml of unbuffered physiological saline solution; from tissue; host or cells: isolated whole stomach of immature rats (33-50 g, ca. 21 days old)
T2 sequence (P30553 1-452): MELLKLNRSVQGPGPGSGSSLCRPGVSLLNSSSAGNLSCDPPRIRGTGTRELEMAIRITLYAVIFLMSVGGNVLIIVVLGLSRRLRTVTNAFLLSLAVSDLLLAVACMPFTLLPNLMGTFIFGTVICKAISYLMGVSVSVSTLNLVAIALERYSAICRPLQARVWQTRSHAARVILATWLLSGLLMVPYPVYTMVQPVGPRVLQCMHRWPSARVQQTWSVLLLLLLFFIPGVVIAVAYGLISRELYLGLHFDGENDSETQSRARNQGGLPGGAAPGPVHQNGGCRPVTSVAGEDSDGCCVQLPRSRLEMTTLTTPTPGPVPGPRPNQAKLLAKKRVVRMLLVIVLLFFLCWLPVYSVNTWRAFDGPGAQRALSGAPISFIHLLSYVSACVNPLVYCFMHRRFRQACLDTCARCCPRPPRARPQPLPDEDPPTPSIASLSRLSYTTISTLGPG
Experimental: The compounds of the examples were also tested for gastrin antagonist activity in an immature rat stomach assay. The procedure was as follows: The oesophagus of immature rats (33-50 g, ca. 21 days old) was ligated at the level of the cardiac sphincter and the duodenal sphincter was cannulated. The stomach was excised and flushed with ca. 1 ml of unbuffered physiological saline solution. The fundus was punctured and cannulated. A further 4-5 ml of unbuffered solution was flushed through the stomach to ensure the preparation was not leaking. […] The stomach was continuously perfused at a rate of 1 ml min^-1 with unbuffered solution gassed with 100% O2 with the perfusate passing over an internally referenced pH-electrode fixed 12 cm above the stomach. After 120 min of stabilisation the drugs were added directly to the serosal solution in the organ bath and after a further 60 min cumulative pentagastrin dose-response curves were started.

| Ki (CCKB receptor) [nM] | Kb (gastrin) [nM] | CCKB pKi (CCKB receptor) | Gastrin pKB (gastrin; 60 min) | Compound |
| --- | --- | --- | --- | --- |
| 15.8 | 7.94 |  |  | O=C(O)c1cc(NC(=O)[C@@H](Cc2ccc(O)cc2)NC(=O)C2C3c4ccccc4C(c4ccccc43)C2C(=O)NCC23CC4CC(CC(C4)C2)C3)cc(C(=O)O)c1 (single isomer, unassigned) [Example 27, cis-7-(1R-(3,5-dicarboxyphenylaminocarbonyl)-2-(4-hydroxyphenyl)ethylaminocarbonyl)-8-(1-adamantanemethylaminocarbonyl)-2,3,5,6-dibenzobicyclo [2.2.2]octane] |
|  |  | 7.2 |  | cis-7-(1S-(3-carboxyphenylaminocarbonyl)-2- (2-thiophenyl)ethylaminocarbonyl)-8-(1-naphthalenemethylaminocarbonyl) -2,3,5,6-dibenzobicyclo[2.2.2]octane [Example 57] |
| 158 | 2000 |  |  | O=C(O)c1ccc(NC(=O)[C@H](Cc2ccccc2)NC(=O)C2C3c4ccccc4C(c4ccccc43)C2C(=O)NCC23CC4CC(CC(C4)C2)C3)cc1 (single isomer, unassigned) [Example 46, cis-7-(1S-(4-carboxy-phenylaminocarbonyl) -2-phenylethylaminocarbonyl)-8-(1-adamantane-methylaminocarbonyl) -2,3,5,6-dibenzobicyclo[2.2.2]octane] |
|  |  | 6.5 | 6.9 | O=C(NCC12CC3CC(CC(C3)C1)C2)C1C2c3ccccc3C(c3ccccc32)C1C(=O)N[C@@H](Cc1ccccc1)C(=O)Nc1cc(-c2nnn[nH]2)cc(-c2nnn[nH]2)c1 (stereo partly drawn) [Example 44, cis-7-(1S-(3,5-ditetrazolylphenylaminocarbonyl) -2-phenylethylaminocarbonyl) -8-(1-adamantanemethylaminocarbonyl)-2,3,5,6-dibenzobicyclo[2.2.2] octane] |
| 39.8 | 100 |  |  | O=C(O)c1cc(NC(=O)[C@H](Cc2ccccc2)NC(=O)C2C3c4ccccc4C(c4ccccc43)C2C(=O)NCC2CCCCCC2)cc(C(=O)O)c1 (single isomer, unassigned) [Example 29, cis-7-(1S-(3,5-dicarboxyphenylaminocarbonyl) -2-phenylethylaminocarbonyl) -8-(cycloheptanemethyl-aminocarbonyl)-2,3,5,6-dibenzobicyclo[2.2.2]octane] |
| 398 |  |  |  | O=C(O)c1cccc(NC(=O)[C@H](Cc2ccccc2)NC(=O)C2C3c4ccccc4C(c4ccccc43)C2C(=O)NCc2cccc3ccccc23)c1 (single isomer, unassigned) [Example 60, cis-7-(1S-(3-carboxyphenylaminocarbonyl)-2-phenylethylaminocarbonyl)-8-(1-naphthalenemethylaminocarbonyl)-2,3,5,6-dibenzobicyclo [2.2.2]octane] |
| 10000 |  |  |  | COC(=O)c1cc(NC(=O)[C@H](Cc2ccccc2)NC(=O)C2C3c4ccccc4C(c4ccccc43)C2C(=O)NCC23CC4CC(CC(C4)C2)C3)cc(C(=O)OC)c1 (single isomer, unassigned) [Example 48] |
| 3.98 | 3.98 |  |  | O=C(O)c1cc(NC(=O)[C@H](Cc2ccccc2)NC(=O)C2C3c4ccccc4C(c4ccccc43)C2C(=O)NCC2CCCCCC2)cc(C(=O)O)c1 (single isomer, unassigned) [Example 28, cis-7-(1S-(3,5-dicarboxyphenylaminocarbonyl) -2-phenylethylaminocarbonyl)-8-(1-cycloheptane-methylaminocarbonyl) -2,3,5,6-dibenzobicyclo[2.2.2]octane] |
|  | 158 |  |  | O=C(O)c1cc(NC(=O)[C@@H](Cc2ccc(O)cc2)NC(=O)C2C3c4ccccc4C(c4ccccc43)C2C(=O)NCC23CC4CC(CC(C4)C2)C3)cc(C(=O)O)c1 (single isomer, unassigned) [Example 26, cis-7-(1R-(3,5-dicarboxyphenylaminocarbonyl)-2-(4-hydroxyphenyl)-ethylaminocarbonyl)-8-(1-adamantanemethylaminocarbonyl) -2,3,5,6-dibenzobicyclo [2.2.2]octane] |
|  | 63.1 |  |  | O=C(O)c1cc(NC(=O)[C@H](Cc2ccc(O)cc2)NC(=O)C2C3c4ccccc4C(c4ccccc43)C2C(=O)NCC23CC4CC(CC(C4)C2)C3)cc(C(=O)O)c1 (single isomer, unassigned) [Example 25, cis-7-(1S-(3,5-dicarboxyphenylaminocarbonyl)-2-(4-hydroxyphenyl)ethylaminocarbonyl)-8-(1-adaxantanemethylaminocarbonyl)-2,3,5,6-dibenzobicyclo[2.2.2]octane] |
| 1.58 | 1.26 |  |  | O=C(O)c1cc(NC(=O)[C@H](Cc2ccc(O)cc2)NC(=O)C2C3c4ccccc4C(c4ccccc43)C2C(=O)NCC23CC4CC(CC(C4)C2)C3)cc(C(=O)O)c1 (single isomer, unassigned) [Example 24, cis-7-(1S-(3,5-dicarboxyphenylaminocarbonyl) -2-(4-hydroxyphenyl) -ethylaminocarbonyl)-8-(1-adamantanemethylaminocarbonyl) -2,3,5,6-dibenzobicyclo[2.2.2]octane] |
| 126 |  |  |  | O=C(O)c1ccc(NC(=O)[C@H](Cc2ccccc2)NC(=O)C2C3c4ccccc4C(c4ccccc43)C2C(=O)NCC23CC4CC(CC(C4)C2)C3)cc1 (single isomer, unassigned) [Example 47] |
| 501 |  |  |  | O=C(O)c1cccc(NC(=O)[C@H](Cc2cccs2)NC(=O)C2C3c4ccccc4C(c4ccccc43)C2C(=O)NCc2cccc3ccccc23)c1 (single isomer, unassigned) [Example 58, cis-7-(1S-(3-carboxyphenylaminocarbonyl)-2-(2-thiophenyl)ethylaminocarbonyl)-8-(1-naphthalenemethylaminocarbonyl)-2,3,5,6-dibenzobicyclo[2.2.2]octane] |
|  | 251 |  |  | O=C(NCC12CC3CC(CC(C3)C1)C2)C1C2c3ccccc3C(c3ccccc32)C1C(=O)N[C@@H](Cc1ccccc1)C(=O)Nc1ccccc1 (single isomer, unassigned) [Example 23, cis-7-(1S-(phenylaminocarbonyl)-2-phenylethylaminocarbonyl)-8-(1-adamantanemethylaminocarbonyl)-2,3,5,6-dibenzobicyclo[2.2.2]octane] |
|  |  | 7.2 |  | cis-7-(1S-(3-carboxyphenylaminocarbonyl)-2-phenylethylaminocarbonyl)-8-(1-naphthalenemethylaminocarbonyl)-2,3,5,6-dibenzobicyclo[2.2.2]octane [Example 59] |

From patent EP0719251B1, “BICYCLO (2.2.2) OCTANE DERIVATIVES CHOLECYSTOKININ AND/OR GASTRIN ANTAGONISTS” (JAMES BLACK FOUNDATION LIMITED, priority 1993, dated 1995)
